Where “and” joins values, the source holds several entries; their conditions need not be identical. Equal values may be shown once.
Conditions: Liquid; for mass density: 101.33 kPa, Vibrating tube method; for vapor or sublimation pressure: Closed cell (Static) method

CO[PH](=O)[O-].Cn1cc[n+](C)c1 [1,3-dimethylimidazolium methyl phosphonate]
Conditions	mass density [kg/m3]
298.15 K	1230.6
299.45 K	1229.8
300.75 K	1229.3
302.15 K	1228.6
303.45 K	1227.9
304.75 K	1227.3
305.85 K	1226.6
307.15 K	1225.8
308.65 K	1224.9
310.35 K	1223.9
311.75 K	1223.1
313.05 K	1222.4
314.45 K	1221.5
315.85 K	1220.7
317.25 K	1219.9
318.75 K	1219.2

c1ccncc1 [pyridine]
Conditions	vapor or sublimation pressure
288.15 K	1.65 kPa and 1.72 kPa
293.15 K	2.2 kPa and 2.25 kPa
298.15 K	2.83 kPa and 2.85 kPa
303.15 K	3.45 kPa

c1ccsc1 [thiophene]
Conditions	vapor or sublimation pressure
288.15 K	6.78 kPa and 6.75 kPa
293.15 K	8.7 kPa and 8.74 kPa
298.15 K	10.37 kPa and 10.58 kPa
303.15 K	12.98 kPa

Cc1ccccc1 [toluene]
Conditions	vapor or sublimation pressure
288.15 K	2.42 kPa and 2.35 kPa
293.15 K	3.18 kPa and 3.05 kPa
298.15 K	3.84 kPa
303.15 K	4.73 kPa

O [water]
Conditions	vapor or sublimation pressure [kPa]
283.15 K	1.27
288.15 K	1.73
293.15 K	2.33
298.15 K	3.2
